Test results as given in US12103915B2, “TEAD inhibitors and methods of uses thereof” (Insilico Medicine IP Limited, priority 2022, dated 2024).

Legend:
[1] = biological target: TEAD3 (Homo sapiens, UniProt Q99594); test: Thermal shift assay TEAD3; type: binding
Summary of the method: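 Compounds at 1 or 10 μM (0.1% DMSO, PBS dilution) mixed with 0.1 mg/ml final TEAD3 and thermal shift dye, then run through a qPCR melt to follow protein unfolding.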

[2] = biological target: TEAD4 (Homo sapiens, UniProt Q15561); test: Thermal shift assay TEAD4; type: binding
TEAD4, sequence (Q15561 whole entry, species assumed): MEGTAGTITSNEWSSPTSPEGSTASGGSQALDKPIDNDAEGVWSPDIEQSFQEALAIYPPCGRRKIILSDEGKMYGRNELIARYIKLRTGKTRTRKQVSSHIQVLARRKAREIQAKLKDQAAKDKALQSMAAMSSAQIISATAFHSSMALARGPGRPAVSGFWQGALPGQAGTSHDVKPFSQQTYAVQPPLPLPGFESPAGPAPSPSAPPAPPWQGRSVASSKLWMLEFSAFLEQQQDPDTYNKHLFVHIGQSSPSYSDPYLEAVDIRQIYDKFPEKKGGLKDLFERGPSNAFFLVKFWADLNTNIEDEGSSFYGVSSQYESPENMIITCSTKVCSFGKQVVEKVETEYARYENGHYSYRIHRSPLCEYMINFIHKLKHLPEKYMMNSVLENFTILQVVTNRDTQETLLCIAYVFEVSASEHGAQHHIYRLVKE
Summary of the method: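 Compounds tested at 1 and 10 μM (0.1% DMSO, PBS) against TEAD4 protein at 0.1 mg/ml final. Melting followed by thermal shift dye fluorescence during a qPCR instrument ramp.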

[3] = tested on: NCI-H226 cells; test: Cell growth assay (CellTiter-Glo); type: cell-based, human; settings: Homo sapiens, NCI-H226, 168 h, 7 days treatment, CellTiter-Glo luminescence, read-out: H226 CTG IC50
[4] = biological target: TEAD1 (Homo sapiens, UniProt P28347); test: Thermal shift assay TEAD1; type: binding
TEAD1, sequence (P28347 whole entry, species assumed): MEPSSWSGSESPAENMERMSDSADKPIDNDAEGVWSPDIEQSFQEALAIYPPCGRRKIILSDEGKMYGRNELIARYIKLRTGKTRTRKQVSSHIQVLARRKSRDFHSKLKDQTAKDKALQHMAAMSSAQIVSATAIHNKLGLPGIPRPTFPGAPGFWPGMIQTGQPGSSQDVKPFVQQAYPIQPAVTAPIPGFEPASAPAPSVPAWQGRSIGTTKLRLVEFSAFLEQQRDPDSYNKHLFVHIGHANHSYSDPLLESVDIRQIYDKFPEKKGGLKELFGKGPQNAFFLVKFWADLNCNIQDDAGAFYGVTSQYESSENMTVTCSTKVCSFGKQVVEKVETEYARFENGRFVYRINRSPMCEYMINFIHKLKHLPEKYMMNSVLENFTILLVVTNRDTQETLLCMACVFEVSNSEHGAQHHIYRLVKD
Summary of the method: (§1)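 Protein melt reactions contained TEAD1 (0.2 mg/ml final) or TEAD2 (0.08 mg/ml final) plus compound at 1 or 10 μM in 0.1% DMSO. Thermal unfolding was followed by dye fluorescence on a qPCR instrument.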

[5] = biological target: TEAD2 (Homo sapiens, UniProt Q15562); test: Thermal shift assay TEAD2; type: binding
TEAD2, sequence (Q15562 whole entry, species assumed): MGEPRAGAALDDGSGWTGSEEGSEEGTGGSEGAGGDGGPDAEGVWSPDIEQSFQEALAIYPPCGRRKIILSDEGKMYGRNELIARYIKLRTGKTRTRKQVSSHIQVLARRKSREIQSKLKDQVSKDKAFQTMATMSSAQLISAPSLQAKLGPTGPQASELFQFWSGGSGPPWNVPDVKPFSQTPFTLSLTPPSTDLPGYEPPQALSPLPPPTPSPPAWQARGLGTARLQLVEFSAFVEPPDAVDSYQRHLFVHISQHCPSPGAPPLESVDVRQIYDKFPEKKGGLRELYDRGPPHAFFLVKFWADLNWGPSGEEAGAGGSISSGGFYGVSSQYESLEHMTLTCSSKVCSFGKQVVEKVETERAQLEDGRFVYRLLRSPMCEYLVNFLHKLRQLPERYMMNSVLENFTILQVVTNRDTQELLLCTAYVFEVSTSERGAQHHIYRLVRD
Summary of the method: as §1

TEAD3, sequence (Q99594 whole entry, species assumed): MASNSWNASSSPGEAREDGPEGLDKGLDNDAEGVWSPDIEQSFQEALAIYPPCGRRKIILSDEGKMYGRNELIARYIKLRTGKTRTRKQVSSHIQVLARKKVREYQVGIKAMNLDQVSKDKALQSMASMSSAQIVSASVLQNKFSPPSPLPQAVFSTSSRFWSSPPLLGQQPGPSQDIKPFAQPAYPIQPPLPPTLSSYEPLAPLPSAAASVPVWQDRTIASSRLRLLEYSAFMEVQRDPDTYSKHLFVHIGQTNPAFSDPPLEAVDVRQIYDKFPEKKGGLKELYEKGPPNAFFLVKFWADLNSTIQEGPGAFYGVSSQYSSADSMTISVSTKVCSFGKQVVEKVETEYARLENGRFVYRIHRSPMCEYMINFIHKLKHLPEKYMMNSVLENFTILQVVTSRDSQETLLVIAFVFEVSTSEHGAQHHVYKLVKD

Cn1cc2cc(Oc3ccc(C(F)(F)F)cc3)cc(C3C[C@H]3C(=O)N3C[C@H]4C[C@@H]3C[C@@H]4O)c2n1 (single isomer, unassigned) [Example 103c]
TEAD3 ΔTm [1]: 9.4 °C
TEAD4 ΔTm [2]: 10.7 °C
IC50 [3]: < 100 nM
TEAD1 ΔTm [4]: 9.2 °C
TEAD2 ΔTm [5]: 11.1 °C

Cn1cc2cc(Oc3ccc(C(F)(F)F)cc3)cc([C@@H]3C[C@H]3C(=O)N3CC[C@@H](O)[C@H](O)C3)c2n1 (single isomer, unassigned) [Example 75b]
TEAD3 ΔTm [1]: 10.1 °C
TEAD4 ΔTm [2]: 11.6 °C
IC50 [3]: < 100 nM
TEAD1 ΔTm [4]: 9.3 °C
TEAD2 ΔTm [5]: 11.9 °C

Cn1cc2cc(Oc3ccc(C(F)(F)F)cc3)cc([C@@H]3C[C@H]3C(=O)N3CC4CC3CC4O)c2n1 (single isomer, unassigned) [Example 103a]
TEAD3 ΔTm [1]: 3.0 °C
TEAD4 ΔTm [2]: 9.0 °C
IC50 [3]: < 100 nM
TEAD1 ΔTm [4]: 6.4 °C
TEAD2 ΔTm [5]: 9.9 °C

CC(=O)NS(=O)(=O)CCc1cc(-c2ccc(C(F)(F)F)cc2)cc2cn(C)nc12 [Example 46]
TEAD3 ΔTm [1]: 7.2 °C
TEAD4 ΔTm [2]: 11.2 °C
IC50 [3]: 1000 to 30000 nM
TEAD1 ΔTm [4]: 10.4 °C
TEAD2 ΔTm [5]: 10.9 °C

CNC(=O)[C@@H]1CC1c1cc(-c2ccc(OC(F)(F)F)cc2)cc2cn(C)nc12 (mixture of isomers) [Example 33]
TEAD3 ΔTm [1]: 0.6 °C
TEAD4 ΔTm [2]: 6.5 °C
IC50 [3]: < 100 nM
TEAD1 ΔTm [4]: 4 °C
TEAD2 ΔTm [5]: 6.7 °C

Cc1ccc2c(c1)c(C1C[C@H]1C(=O)O)cn2-c1ccc(C(F)(F)F)cc1 (mixture of isomers) [Example 21]
TEAD3 ΔTm [1]: 5.2 °C
TEAD4 ΔTm [2]: 9.3 °C
IC50 [3]: < 100 nM
TEAD1 ΔTm [4]: 11 °C
TEAD2 ΔTm [5]: 6.7 °C

Cn1ncc2c(C3C[C@H]3C(=O)O)cc(-c3ccc(OC(F)(F)F)cc3)cc21 (mixture of isomers) [Example 10]
TEAD3 ΔTm [1]: 2 °C
TEAD4 ΔTm [2]: 7.3 °C
IC50 [3]: 100 to 500 nM
TEAD1 ΔTm [4]: 6 °C
TEAD2 ΔTm [5]: 7.7 °C

CNS(=O)(=O)CCCc1cc(-c2ccc(C(F)(F)F)cc2)cc2cn(C)nc12 [Example 47]
TEAD3 ΔTm [1]: −0.8 °C
TEAD4 ΔTm [2]: 5.7 °C
IC50 [3]: 1000 to 30000 nM
TEAD1 ΔTm [4]: 4.7 °C
TEAD2 ΔTm [5]: 1.9 °C

Cn1cc2cc(Oc3ccc(C(F)(F)F)cc3)cc(C3C[C@H]3C(=O)N3[C@@H]4CC[C@H]3C[C@@H](O)C4)c2n1 (single isomer, unassigned) [Example 104]
TEAD3 ΔTm [1]: 2.0 °C
TEAD4 ΔTm [2]: 8.1 °C
IC50 [3]: < 100 nM
TEAD1 ΔTm [4]: 6.5 °C
TEAD2 ΔTm [5]: 9.0 °C

Cn1cc2cc(-c3ccc(OC(F)(F)F)cc3)cc(C3C[C@H]3C(=O)O)c2n1 (mixture of isomers) [Example 12]
TEAD3 ΔTm [1]: 2.3 °C
TEAD4 ΔTm [2]: 11.5 °C
IC50 [3]: < 100 nM
TEAD1 ΔTm [4]: 7.7 °C
TEAD2 ΔTm [5]: 9.4 °C

Cn1cc2cc(Oc3ccc(C(F)(F)F)cn3)cc([C@H]3C[C@@H]3C(=O)N3CC(O)C3)c2n1 (single isomer, unassigned) [Example 88b]
TEAD3 ΔTm [1]: 2.6 °C
TEAD4 ΔTm [2]: 9.7 °C
IC50 [3]: < 100 nM
TEAD1 ΔTm [4]: 7.6 °C
TEAD2 ΔTm [5]: 10.9 °C
